Data set [1] in a line: Cytotoxicity against human RD cells assessed as reduction in cell viability after 72 hrs by CCK-8 assay.
Data set [2] can be described thus: Volume of distribution in CD-1 mouse at 2 mg/kg, iv administered as single dose. The data set is classed as ADME, organism-based. Particulars: in vivo.
Data set [3] in a line: Tmax in CD-1 mouse at 5 mg/kg, ip administered as single dose. In kind it is ADME, organism-based. Particulars: in vivo.
A short description of data set [4]: AUC in CD-1 mouse at 2 mg/kg, iv administered as single dose. In kind it is ADME, organism-based. Particulars: in vivo.
Data set [5] is described as follows: Clearance in CD-1 mouse at 2 mg/kg, iv administered as single dose. In kind it is ADME, organism-based. Particulars: in vivo.
The nature of data set [6]: Cmax in CD-1 mouse at 5 mg/kg, ip administered as single dose. The data set is classed as ADME, organism-based. Also on record: dose 5 mg/kg, route intraperitoneal. Particulars: in vivo.
Data set [7] is described as follows: AUC in CD-1 mouse at 5 mg/kg, ip administered as single dose. In kind it is ADME, organism-based. The note with it: in vivo.
Data set [8] can be described thus: […] bioavailability in CD-1 mouse at 5 mg/kg, ip administered as single dose. In kind it is ADME, organism-based. The note with it: in vivo, intraperitoneal.
The nature of data set [9]: Elimination half life in CD-1 mouse at 2 mg/kg, iv administered as single dose. The data set is classed as ADME, organism-based. Particulars: in vivo, read-out: beta t1/2 (converted).
The nature of data set [10]: Stability in mouse liver microsomes. In kind it is ADME, microsome.
The subject of data set [11] is Enterovirus A71. The data set can be described thus: Antiviral activity against EV71 695F infected in ICR mouse assessed as decrease in body weight loss at 10 mg/kg, ip qd administered for 7 days dosed after viral infection measured for 2 weeks. The data set is classed as functional, organism-based.
The test system of data set [12] is Enterovirus A71. The data set is described as follows: Antiviral activity against EV71 695F infected in ICR mouse assessed as protection against viral infection by measuring mouse survival at 10 mg/kg, ip qd administered for 7 days dosed after viral infection measured for 2 weeks relative to control. The data set is classed as functional. The note with it: Enterovirus A.

Data set [13] concerns Enterovirus A71. The data set can be described thus: Antiviral activity against EV71 695F infected in ICR mouse assessed as effect on clinical score at 10 mg/kg, ip qd administered for 7 days dosed prior to viral infection measured for 2 weeks. In kind it is functional, organism-based.
The subject of data set [14] is Enterovirus A71. The data set is described as follows: Antiviral activity against EV71 695F infected in ICR mouse assessed as protection against viral infection by measuring mouse survival at 10 mg/kg, ip qd administered for 7 days dosed prior to viral infection measured for 2 weeks relative to control. Particulars: Enterovirus A. In kind it is functional.
The subject of data set [15] is Enterovirus A71. The data set is described as follows: Antiviral activity against EV71 695F infected in ICR mouse assessed as decrease in body weight loss at 10 mg/kg, ip qd administered for 7 days dosed prior to viral infection measured for 2 weeks. The data set is classed as functional, organism-based.
Data set [16] deals with Enterovirus A71. The data set is described as follows: Antiviral activity against EV71 695F infected in ICR mouse assessed as effect on clinical score at 10 mg/kg, ip qd administered for 7 days dosed after viral infection measured for 2 weeks. The data set is classed as functional, organism-based.
For data set [17], the system named is Mus musculus. The data set is described as follows: Toxicity in ICR mouse infected with EV71 695F assessed as death at 100 mg/kg, ip qd administered for 7 days measured on day 5. In kind it is organism-based. Particulars: in vivo, 168 h.
Data set [18] has as its system Mus musculus. The data set is described as follows: Toxicity in ICR mouse infected with EV71 695F assessed as death at 50 mg/kg, ip qd administered for 7 days measured on day 6. In kind it is organism-based. The note with it: in vivo, 168 h.
Data set [19] can be described thus: […] bioavailability in CD-1 mouse at 5 mg/kg administered as single dose. Particulars: in vivo, po. The data set is classed as ADME, organism-based.
Data set [20] addresses Voltage-gated inwardly rectifying potassium channel KCNH2 (Homo sapiens, UniProt Q12809). The data set can be described thus: Inhibition of human ERG expressed in CHO-K1 cells by Qpatch assay. In general terms: In patch-clamp work, channel activity is measured electrically.
A short description of data set [21]: Cmax in CD-1 mouse at 5 mg/kg, po administered as single dose. The data set is classed as ADME, organism-based. Details: dose 5 mg/kg, route oral. The note with it: in vivo.
Data set [22] can be described thus: AUC in CD-1 mouse at 5 mg/kg, po administered as single dose. The data set is classed as ADME, organism-based. The note with it: in vivo.
A short description of data set [23]: Tmax in CD-1 mouse at 5 mg/kg, po administered as single dose. The data set is classed as ADME, organism-based. The note with it: in vivo.
The test system of data set [24] is Enterovirus A71. The data set can be described thus: Antiviral activity against EV71 695F infected in ICR mouse assessed as effect on clinical score at 0.4 mg/kg, ip qd administered for 7 days dosed prior to viral infection measured for 2 weeks. The data set is classed as functional, organism-based.
The test system of data set [25] is Enterovirus A71. The data set can be described thus: Antiviral activity against EV71 695F infected in ICR mouse assessed as protection against viral infection by measuring mouse survival at 0.4 mg/kg, ip qd administered for 7 days dosed prior to viral infection measured on day 14 relative to control. In kind it is functional. The note with it: Enterovirus A.
Data set [26] concerns Enterovirus A71. The data set is described as follows: Antiviral activity against EV71 695F infected in ICR mouse assessed as decrease in body weight loss at 0.4 mg/kg, ip qd administered for 7 days dosed prior to viral infection measured for 2 weeks. The data set is classed as functional, organism-based.

Active and inactive are the calls of the source. No cut-off for these calls is given here.

Consider 18 compounds from ChEMBL document CHEMBL4190331, “Discovery of Potent EV71 Capsid Inhibitors for Treatment of HFMD” (ACS Med Chem Lett, 2017).

One may read the CC50 as the concentration giving 50% cytotoxicity. Broadly, the Vd is the apparent volume that relates the amount in the body to the concentration in plasma or blood. Lower therefore signals confinement near the circulation. As a reminder, the Tmax is the time from dosing to the highest level. The AUC is the area under the concentration-time curve, a measure of exposure. A low value points to less exposure. One may read the clearance as the rate of elimination divided by the concentration. For orientation: Cmax means the highest concentration seen after dosing. One may read the IC50 as the concentration at which inhibition is half-maximal. Lower therefore signals higher potency.

Chain of Voltage-gated inwardly rectifying potassium channel KCNH2 (Q12809 whole entry): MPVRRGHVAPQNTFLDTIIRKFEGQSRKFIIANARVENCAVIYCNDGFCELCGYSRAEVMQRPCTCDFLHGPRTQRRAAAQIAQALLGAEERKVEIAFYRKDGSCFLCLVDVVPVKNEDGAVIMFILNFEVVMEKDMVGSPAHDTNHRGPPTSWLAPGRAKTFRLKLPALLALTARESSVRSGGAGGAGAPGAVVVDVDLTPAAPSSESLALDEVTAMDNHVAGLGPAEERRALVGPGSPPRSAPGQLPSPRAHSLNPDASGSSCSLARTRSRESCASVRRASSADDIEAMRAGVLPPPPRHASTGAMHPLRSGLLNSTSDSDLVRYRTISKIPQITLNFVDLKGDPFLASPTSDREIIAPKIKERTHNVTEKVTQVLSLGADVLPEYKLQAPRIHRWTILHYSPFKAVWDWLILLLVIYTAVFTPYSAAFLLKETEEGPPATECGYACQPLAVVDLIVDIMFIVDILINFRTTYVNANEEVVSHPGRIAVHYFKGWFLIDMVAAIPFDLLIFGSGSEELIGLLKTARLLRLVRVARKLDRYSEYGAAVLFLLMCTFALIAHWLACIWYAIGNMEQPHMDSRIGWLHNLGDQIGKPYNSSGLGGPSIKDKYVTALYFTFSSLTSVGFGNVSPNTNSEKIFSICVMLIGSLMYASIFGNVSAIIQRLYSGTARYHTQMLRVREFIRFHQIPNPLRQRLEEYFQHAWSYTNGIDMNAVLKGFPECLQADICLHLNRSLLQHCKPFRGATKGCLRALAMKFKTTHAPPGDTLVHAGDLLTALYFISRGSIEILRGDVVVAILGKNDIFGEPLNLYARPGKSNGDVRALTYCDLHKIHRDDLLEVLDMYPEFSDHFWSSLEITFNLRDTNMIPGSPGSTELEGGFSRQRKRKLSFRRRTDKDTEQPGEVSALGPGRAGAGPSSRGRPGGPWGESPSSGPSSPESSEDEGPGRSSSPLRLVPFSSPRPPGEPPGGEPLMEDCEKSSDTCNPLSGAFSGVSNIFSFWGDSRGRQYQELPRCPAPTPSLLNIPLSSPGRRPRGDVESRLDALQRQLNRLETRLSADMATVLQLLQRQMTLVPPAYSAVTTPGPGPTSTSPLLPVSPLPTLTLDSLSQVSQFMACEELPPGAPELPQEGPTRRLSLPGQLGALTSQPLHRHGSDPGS

As for `CCO/N=C(\C)c1ccc(OCCCCCN2CCN(c3ccnc(N)c3)S2(=O)=O)cc1`, in [1] (RD cells), the CC50 at 72 h was above 100 µM.

Turning to `Nc1cc(N2CCN(CCCCCOc3ccc(-c4ccc(Cl)cc4)cc3)S2(=O)=O)ccn1`, the CC50 at 72 h in [1] (RD cells) was above 100 µM.

`O=C1N(CCCCCOc2ccc(-c3ccc(Cl)cc3)cc2)CCN1c1ccncc1` had a Vd in data set [2] of 9 L/kg. The Tmax in data set [3] was 2 h. For the same compound, the AUC was 2.73 µM·h in [4] and 4.28 µM·h in data set [7]. In addition, the clearance in data set [5] was 28 mL/min/kg. The CC50 at 72 h in data set [1] (RD cells) was above 100 µM. The same compound had a Cmax in [6] of 453 nM. Also, the bioavailability in data set [8] is 64%. Besides, the half-life in [9] was 4 h. In [10], this compound gave a Stability of 40 to 50 µL/min/mg.

For the compound `O=C1CN(c2ccncc2)CCN1CCCCCOc1ccc(-c2ccc(Cl)cc2)cc1`, in data set [2], the Vd worked out at 10 L/kg. Besides, the Tmax in data set [3] amounted to 2 h. The AUC in [4] was 3.34 µM·h; in [7] it was 8.95 µM·h. This compound registered a clearance in [5] of 21 mL/min/kg. Moreover, in data set [1] (rd), the CC50 at 72 h came to 3.2 µM. In data set [6], this compound returned a Cmax of 1260 nM. In addition, in data set [8], the bioavailability came to 112%. In [9], the half-life was 6 h. The compound also registered a Stability in data set [10] of 40 to 50 µL/min/mg.

Consider `CCn1ccc2cc(OCCCCCN3CCN(c4ccnc(N)c4)S3(=O)=O)ccc21`, for which the CC50 at 72 h in [1] (RD cells) was above 100 µM.

Take `O=C1N(CCCCc2nc3cc(-c4ccc(Cl)cc4)ccc3o2)CCN1c1ccncc1`: in data set [1] (RD cells), the CC50 at 72 h was above 100 µM.

For `CCO/N=C1\CCc2cc(OCCCCCN3CCN(c4ccnc(N)c4)S3(=O)=O)ccc21`, the Vd in data set [2] stood at 2.8 L/kg. The result with Enterovirus A71 [11], in the data set on Enterovirus A71 [13], in the data set with Enterovirus A71 [15] and in the data set on Enterovirus A71 [16] was Active. The Tmax in [3] stood at 0.7 h. Also, the survival at 10 mg/kg with Enterovirus A71 [12] and with Enterovirus A71 [14] was 100% throughout. Also, the AUC in data set [4] was 0.821 µM·h; in data set [7], 3.87 µM·h. Further, the clearance in data set [5] is 34 mL/min/kg. The CC50 at 72 h in data set [1] (rd) stood at 42 µM. Also, the concentration in data set [6] peaked (Cmax) at 2150 nM. The bioavailability in data set [8] was 88%. Further, in data set [9], the half-life was 1.5 h.

`CCO/N=C/c1ccc(OCCCCCN2CCN(c3ccnc(N)c3)S2(=O)=O)cc1` gave a Vd in data set [2] of 3.2 L/kg. Moreover, the Tmax in data set [3] is 0.5 h. For the same compound, the AUC in data set [4] is 0.592 µM·h; in data set [7], 2.45 µM·h. For the same compound, the clearance in data set [5] was found to be 36 mL/min/kg. For the same compound, the CC50 at 72 h in [1] (rd) is above 100 µM. The highest level in data set [6] (Cmax) was 1440 nM. In addition, the bioavailability in [8] is 79%. Also, the half-life in [9] is 1.6 h.

With `CCO/N=C(\CC)c1ccc(OCCCCCN2CCN(c3ccnc(N)c3)S2(=O)=O)cc1`, in data set [1] (RD cells), the CC50 at 72 h is above 100 µM.

Take `NC(=O)c1ncn([C@@H]2O[C@H](CO)[C@@H](O)[C@H]2O)n1` [RIBAVIRIN]: the Activity entry with Mus musculus [17] and with Mus musculus [18] was “Toxic” throughout.

As to `CCO/N=C/c1ccc(OCCC(C)CCN2CCN(c3ccnc(N)c3)C2=O)cc1` (configuration not stated), the Vd in data set [2] was found to be 2.4 L/kg. The Tmax in data set [3] was 0.3 h. Besides, the AUC in data set [4] was 0.371 µM·h; in data set [7] it was 1.71 µM·h. Further, the clearance in [5] was determined as 105 mL/min/kg. In data set [1] (rd), the CC50 at 72 h is 5 µM. Moreover, the concentration in [6] peaked (Cmax) at 1560 nM. In addition, the bioavailability in [8] is 92%. In [9], the half-life was 0.3 h.

In the case of `O=C1N(CCCCC2CCc3cc(-c4ccc(Cl)cc4)ccc3O2)CCN1c1ccncc1` (configuration not stated), in data set [2], the Vd was 3 L/kg. Besides, the Tmax in data set [3] amounted to 1 h. Besides, the AUC worked out at 11 µM·h in data set [4] and 23.2 µM·h in data set [7]. Also, in data set [5], the clearance amounted to 6 mL/min/kg. Besides, in data set [1] (rd), the CC50 at 72 h is 3.4 µM. In addition, the peak level in [6] (Cmax) was 3360 nM. Moreover, the bioavailability in data set [8] came to 86%. Further, in data set [9], the half-life is 5 h. In addition, the Stability in [10] fell in the range of 40 to 50 µL/min/mg.

For the compound `CCO/N=C1\CCCc2cc(OCCCCCN3CCN(c4ccnc(N)c4)S3(=O)=O)ccc21`, the CC50 at 72 h in data set [1] (RD cells) was above 100 µM.

Take `O=C1N(CCCCc2cc3cc(-c4ccc(Cl)cc4)ccc3o2)CCN1c1ccncc1`: in data set [1] (RD cells), the half-maximal cytotoxic concentration (CC50) at 72 h was 4.3 µM.

In the case of `CCn1ncc2cc(OCCCCCN3CCN(c4ccnc(N)c4)S3(=O)=O)ccc21`, the CC50 at 72 h in [1] (RD cells) is above 100 µM.

Turning to `O=S1(=O)N(CCCCCOc2ccc(-c3ccc(Cl)cc3)cc2)CCN1c1ccncc1`, in data set [2], the Vd is 5 L/kg. For the same compound, the Tmax in data set [3] and in data set [23] was 2 h each time. Moreover, the bioavailability stood at 43% in data set [19] and 63% in data set [8]. Moreover, the AUC in data set [4] is 5.71 µM·h; in data set [7], 9.01 µM·h; in [22], 6.17 µM·h. In [20], the IC50 was above 30 µM. This compound also showed a clearance in [5] of 12 mL/min/kg. In data set [1] (RD cells), the CC50 at 72 h is above 100 µM. For the same compound, the Cmax in data set [6] was 682 nM; in data set [21], 617 nM. For the same compound, in data set [9], the half-life is 6 h. The compound further came in with a Stability in [10] below 10 µL/min/mg.

For the compound `O[C@H]1[C@H]2c3cc4c(cc3CN3CCC(=C[C@@H]1O)[C@H]23)OCO4` [LYCORINE], the outcome in the data set on Enterovirus A71 [24] and in the data set on Enterovirus A71 [26] was Active. The survival at 0.4 mg/kg in the data set with Enterovirus A71 [25] was determined as 30%.

Turning to `CCc1noc2cc(OCCCCCN3CCN(c4ccnc(N)c4)S3(=O)=O)ccc12`, the CC50 at 72 h in data set [1] (RD cells) is above 100 µM.
